“Also recorded” adds a separate entry of the source.
Assays:
hair follicles = test: Histological analysis of the back skin (hair growth cycle, hair follicles); format: in vivo, mouse; settings: for Anagen ratio / anagen phases observed (number of cases): 4 animals per group
Excerpt: At 6 weeks after subcutaneous injection, mice were sacrificed. Their back skin tissue samples were isolated using scissors and forceps and fixed by formalin. After dehydration with serial alcohol and xylene, the tissues were paraffinized. Paraffinized tissues were sectioned using a microtomb in a thickness of 5 μm and used alcohol and xylene to remove paraffin. Then, the tissues were stained with hematoxyline/eosin, followed by observation of histological changes in hair follicles under an optical microscope. The hair growth cycles in the tissues were pathologically diagnosed by specialists, and quantity and diameter of hair follicle were measured under an optical microscope.

[1] = Measurement on changes in body weight; format: in vivo, mouse; settings: initial body weights and at 6 weeks; vs negative control group (Con)
Experimental: 12 of 6-week-old male C57BL/6N mice (Orientbio) were adapted to the environment for 2 weeks. Then, they were divided into total 3 groups, the negative control group (Con), the positive control group (MXD) and oleuropein group (Ole), and used for test. The environment for animals were maintained at 21±2.0° C. and relative humidity 50±5% under 12 hours light/dark cycle. They were fed a food (chow) and water with free access.
In order to verify an effect for promoting hair growth, 8-week-old mice in telogen were used for test. Hairs of their back were removed using a clipper for mouse. They were subcutaneously injected with 0.1 mL of sample at the part, everyday. Before subcutaneous injection, the test substance oleuropein (0.8 mg/0.1 mL) and the control drug minoxidil were dissolved in corn oil to use. The negative control group was subcutaneously injected with only vehicle (corn oil). The application was performed once, every P.M. 4:00 for 6 weeks. […] To assess level of hair growth, the hair length was measured using ruler.
Body weight was measured weekly during entire test period, from the point before the subcutaneous injection of the hair restorers to the end point of the subcutaneous injection of the hair restorers.

[2] = system: LRP5 (low-density lipoprotein receptor-related protein 5); test: RT-PCR gene expression in back skin tissue, LRP5; format: in vivo, mouse; settings: 6 weeks s.c., compared to the negative control group
Experimental: (§1) After adding 1 mL of Trizol agent to 50-100 mg of test animal skin tissues, the mixture was homogenized and centrifuged at 12,000×g for 10 min at 4° C. The supernatant was transferred to a new tube to remove fat layer. Then, 200 μl of chloroform was added to the tube, followed by vortexing. The same procedure was repeated twice and then the supernatant was transferred to a new tube, followed by addition of isopropanol and the supernatant at 1:1 ratio. The mixture was vigorously shaken 10 times and then incubated for 10 min at room temperature, followed by centrifugation at 12,000×g for 10 min at 4° C. to remove the supernatant. After adding 1 mL of 70% ethanol to the remaining pellet, it was centrifuged at 7,500×g for 5 min at 4° C. After removing the ethanol, the RNA pellet contained in the tube was dried for 5 min at 4° C. and dissolved in nuclease-free water. The RNA sample concentration was measured at a wavelength of 260 nm and 280 nm using a UV/VIS spectrophotometer (Beckman coulter, DU730) and the integrity of RNA sample was verified by agarose gel electrophoresis.
(§2) The RNA sample obtained was trasnscribed using oligo dT primer and SuperScript reverse transcriptase (GIBCO BRL, Gaithersburg, Md., USA) to synthesize cDNA. The PCR amplification was performed using the cDNA as templates and primers complementary to cDNA 5′ and 3′ flanking sequence. […]

[3] = system: IGF1 (insulin-like growth factor 1); test: RT-PCR gene expression in back skin tissue, IGF1; format: in vivo, mouse; settings: 6 weeks s.c., compared to the negative control group, FIG. 5
Experimental: as §1, §2

β-catenin [4] = test: Immunohistochemical test on skin tissue, β-catenin; format: in vivo, mouse; settings: 6 weeks s.c., FIG. 4
Experimental: (§3) In order to verify expression amounts of IGF1 and β-catenin related with hair growth in skin tissue, each primary antibody to IGF1 and β-catenin was diluted to 1:50, added to tissue sections, and incubated for 12 hours at room temperature. The primary antibody was diluted with the mixture of 0.1% normal goat serum (Vector Laboratories Inc.) and 0.3% Triton X-100 (Sigma) in 0.1 M phosphate buffer solution (PB). The tissue sections were washed twice at room temperature for 15 minutes in 0.1M PB. Then, secondary antibody [biotinylated anti-rabbit IgG (Vector Laboratories Inc.)] was diluted to 1:200, added to the tissue sections, and incubated for 1 hour at room temperature. The tissue sections were washed twice at room temperature for 15 minutes in 0.1M PB, soaked in peroxidase-labeled ABC solution, and incubated for 1 hour at room temperature. The tissue sections were washed twice at room temperature for 15 minutes in 0.1M PB. Then, the tissue sections were reacted for 5 min with a solution in which 30 mg of 3-3′ diaminobenzidine was dissolved in 150 ml of 0.1M PB, added with concentration of 0.005% of hydrogen peroxide, and reacted for 5 min to occur color reaction. The tissue sections were washed several times at room temperature in 0.1M PB. […]

Axin = test: RT-PCR gene expression in back skin tissue, Axin; format: in vivo, mouse; settings: 6 weeks s.c., compared to the negative control group
Experimental: as §1, §2

Wnt10b = test: RT-PCR gene expression in back skin tissue, Wnt10b; format: in vivo, mouse; settings: 6 weeks s.c., compared to the negative control group
Experimental: as §1, §2

β-catenin [5] = test: RT-PCR gene expression in back skin tissue, β-catenin; format: in vivo, mouse; settings: 6 weeks s.c., compared to the negative control group
Experimental: as §1, §2

[6] = system: GSK3β (glycogen synthase kinase 3β); test: RT-PCR gene expression in back skin tissue, GSK3β; format: in vivo, mouse; settings: 6 weeks s.c., compared to the negative control group
Experimental: as §1, §2

[7] = system: VEGF (vascular endothelial growth factor); test: RT-PCR gene expression in back skin tissue, VEGF; format: in vivo, mouse; settings: 6 weeks s.c., compared to the negative control group, FIG. 5
Experimental: as §1, §2

IGF1 = test: Immunohistochemical test on skin tissue, IGF1; format: in vivo, mouse; settings: 6 weeks s.c., FIG. 4
Experimental: as §3

[8] = system: HGF (hepatocyte growth factor); test: RT-PCR gene expression in back skin tissue, HGF; format: in vivo, mouse; settings: 6 weeks s.c., compared to the negative control group, FIG. 5
Experimental: as §1, §2

[9] = cited from earlier work
[10] = system: KGF (keratocyte growth factor); test: RT-PCR gene expression in back skin tissue, KGF; format: in vivo, mouse; settings: 6 weeks s.c., compared to the negative control group, FIG. 5
Experimental: as §1, §2

[11] = system: FZDR (frizzled receptor 1); test: RT-PCR gene expression in back skin tissue, FZDR; format: in vivo, mouse; settings: 6 weeks s.c., compared to the negative control group
Experimental: as §1, §2

C57BL/6N mice = test: Hair re-growth in hair-removed telogen mice, subcutaneous injection for 6 weeks (visual observation, hair length); format: in vivo, mouse; settings: for hair growth state (visual): s.c. 0.8 mg/0.1 mL in corn oil daily

Nc1cc(N2CCCCC2)nc(N)[n+]1[O-] [minoxidil, reference compound]
Anagen ratio (hair follicles; back skin at 6 weeks): 25%
anagen phases observed (number of cases) (hair follicles; back skin at 6 weeks): 1 case
body weight, difference between groups [1]: no significant differences

C/C=C1/[C@H](O[C@@H]2O[C@H](CO)[C@@H](O)[C@H](O)[C@H]2O)OC=C(C(=O)OC)[C@H]1CC(=O)OCCc1ccc(O)c(O)c1 [oleuropein]
gene expression level of LRP5 [2]: significantly increased
gene expression level of IGF1 [3]: significantly increased
effect for increasing protein expression level of β-catenin compared with minoxidil (β-catenin [4]): more excellent effect
protein expression level of β-catenin (β-catenin [4]; vs the negative group): much more highly detected
gene expression level of Axin (Axin): significantly decreased
gene expression level of Wnt10b (Wnt10b): significantly increased
gene expression level of β-catenin (β-catenin [5]): significantly increased
hair follicle length / appearance (hair follicles; back skin at 6 weeks): became longer and they were expressed into skin
Histological diagnosis of hair growth cycle, individual animals (Animal ID 1-4) (hair follicles; back skin at 6 weeks after s.c. injection): Telogen; also recorded: Anagen
Anagen ratio (hair follicles; back skin at 6 weeks): 50%
anagen phases observed (number of cases) (hair follicles; back skin at 6 weeks): 2 case
diameter of the hair follicles (hair follicles; image analysis, compared to the negative control group): significantly increased
number of hair follicles (hair follicles; optical microscope 40× magnification, compared to the negative control group, FIG. 3): significantly increased
gene expression level of GSK3β [6]: significantly decreased
gene expression level of VEGF [7]: significantly increased
effect for increasing protein expression level of IGF1 compared with minoxidil (IGF1): more excellent effect
protein expression level of IGF1 (IGF1; vs the negative group): much more highly detected
gene expression level of HGF [8]: significantly increased
toxicity ([9]; mouse treated with 1 g/kg (body weight) for 7 days): no toxicity
LD50 ([9]; through various experiments): may not be calculated
gene expression level of KGF [10]: significantly increased
gene expression level of FZDR (frizzled receptor 1) [11]: significantly increased
effect for promoting hair growth (visual) compared with minoxidil (C57BL/6N mice; 6 weeks s.c. injection, FIG. 1): more excellent effect for promoting hair growth than that of the minoxidil
effect for stimulating hair growth (hair length) compared with minoxidil (C57BL/6N mice; 6 weeks s.c. injection, FIG. 2): excellent effect for stimulating hair growth than that of the minoxidil
hair length (C57BL/6N mice; at 3 weeks, p<0.05): significantly increased
hair growth state (visual) (C57BL/6N mice; at 3 weeks): hairs were grown
hair length, increase compared to the negative control group (C57BL/6N mice; at 6 weeks): 62%
hair growth state (visual) (C57BL/6N mice; at 6 weeks): hairs were vigorously grown

— patent publication US9636289B2, “Composition for preventing or treating hair loss or promoting hair growth comprising secoiridoid glucoside derivatives” (priority 2012, dated 2017)
